Key:
Type in all cases: biochemical
[1] = biological target: T1, CDK4/cyclinD3 (Homo sapiens, UniProt P11802); experiment: Cyclin-dependent kinase activity assay (continuous ATP coupling assay), CDK4/cyclinD3; conditions: CDK4/cyclinD3 60 nM, ATP 500 μM, Rb copeptide 500 μM, 15 min preincubation, pH 7.5, 1% DMSO
T1 construct: purchased Carna Biosciences 04-105
In short: (§1)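 PK/LDH-coupled continuous assay, ATP at each kinase's Km, Tris pH 7.5 with 1% DMSO final; enzyme preincubated 15 min with compound (10 μM to 0.05 nM, 1:3), NADH fluorescence decrease (ex 340/em 460) gave velocities. IC50 by 4-variable fit; Ki by quadratic/Morrison fit.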

[2] = biological target: T2, CDK2/cyclinE1 (Homo sapiens, UniProt P24941); experiment: Cyclin-dependent kinase activity assay (continuous ATP coupling assay), CDK2/cyclinE1; conditions: CDK2/cyclinE1 5 nM, ATP 300 μM, Rb copeptide 100 μM, 15 min preincubation, pH 7.5, 1% DMSO
T2 construct: purchased Carna Biosciences 04-165
In short: as §1

[3] = biological target: T3, CDK1/cyclinB1 (Homo sapiens, UniProt P06493); experiment: Cyclin-dependent kinase activity assay (continuous ATP coupling assay), CDK1/cyclinB1; conditions: CDK1/cyclinB1 10 nM, ATP 200 μM, Histone1 copeptide 100 μM, 15 min preincubation, pH 7.5, 1% DMSO
T3 construct: purchased Carna Biosciences 04-102
In short: as §1

[4] = biological target: T4, CDK6/cyclinD3 (Homo sapiens, UniProt Q00534); experiment: Cyclin-dependent kinase activity assay (continuous ATP coupling assay), CDK6/cyclinD3; conditions: CDK6/cyclinD3 25 nM, ATP 500 μM, Rb copeptide 500 μM, 15 min preincubation, pH 7.5, 1% DMSO
T4 construct: purchased Carna Biosciences 04-107
In short: as §1

T4 sequence (Q00534 whole entry): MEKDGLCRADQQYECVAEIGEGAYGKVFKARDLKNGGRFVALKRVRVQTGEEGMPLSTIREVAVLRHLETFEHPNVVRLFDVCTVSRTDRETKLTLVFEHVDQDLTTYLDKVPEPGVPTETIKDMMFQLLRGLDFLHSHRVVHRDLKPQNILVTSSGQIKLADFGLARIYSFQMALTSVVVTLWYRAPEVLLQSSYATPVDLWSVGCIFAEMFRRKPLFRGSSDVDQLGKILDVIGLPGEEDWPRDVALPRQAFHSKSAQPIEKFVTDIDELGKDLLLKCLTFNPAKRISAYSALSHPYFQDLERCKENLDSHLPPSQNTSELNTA
T4 sequence (P30281 whole entry partner): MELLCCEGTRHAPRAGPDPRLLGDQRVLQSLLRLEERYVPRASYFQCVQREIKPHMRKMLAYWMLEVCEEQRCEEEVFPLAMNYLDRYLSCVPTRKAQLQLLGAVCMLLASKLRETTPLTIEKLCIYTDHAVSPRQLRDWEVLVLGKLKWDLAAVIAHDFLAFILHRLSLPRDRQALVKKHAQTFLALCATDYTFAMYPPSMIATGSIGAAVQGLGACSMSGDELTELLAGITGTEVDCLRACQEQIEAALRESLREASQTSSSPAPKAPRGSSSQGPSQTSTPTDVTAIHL
T3 sequence (P06493 whole entry): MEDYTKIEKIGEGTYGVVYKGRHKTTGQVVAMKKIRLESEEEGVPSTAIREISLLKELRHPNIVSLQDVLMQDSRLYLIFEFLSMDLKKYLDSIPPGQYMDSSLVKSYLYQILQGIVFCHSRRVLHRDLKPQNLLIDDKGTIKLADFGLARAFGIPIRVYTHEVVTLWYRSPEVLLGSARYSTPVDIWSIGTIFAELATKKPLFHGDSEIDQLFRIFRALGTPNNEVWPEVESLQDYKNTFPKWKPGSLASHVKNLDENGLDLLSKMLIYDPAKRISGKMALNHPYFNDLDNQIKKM
T3 sequence (P14635 whole entry partner): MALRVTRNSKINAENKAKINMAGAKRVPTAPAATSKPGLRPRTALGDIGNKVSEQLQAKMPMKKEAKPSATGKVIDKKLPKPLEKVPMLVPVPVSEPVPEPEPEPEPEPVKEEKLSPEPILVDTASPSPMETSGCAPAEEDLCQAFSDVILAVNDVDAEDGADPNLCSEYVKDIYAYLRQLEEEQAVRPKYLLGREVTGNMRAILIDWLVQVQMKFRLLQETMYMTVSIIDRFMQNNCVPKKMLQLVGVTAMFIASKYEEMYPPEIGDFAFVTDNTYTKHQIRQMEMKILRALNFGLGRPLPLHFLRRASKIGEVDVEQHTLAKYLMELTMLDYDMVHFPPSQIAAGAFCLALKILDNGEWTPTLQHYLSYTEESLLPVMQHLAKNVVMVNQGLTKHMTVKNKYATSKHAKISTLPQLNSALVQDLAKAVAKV
T1 sequence (P11802 whole entry): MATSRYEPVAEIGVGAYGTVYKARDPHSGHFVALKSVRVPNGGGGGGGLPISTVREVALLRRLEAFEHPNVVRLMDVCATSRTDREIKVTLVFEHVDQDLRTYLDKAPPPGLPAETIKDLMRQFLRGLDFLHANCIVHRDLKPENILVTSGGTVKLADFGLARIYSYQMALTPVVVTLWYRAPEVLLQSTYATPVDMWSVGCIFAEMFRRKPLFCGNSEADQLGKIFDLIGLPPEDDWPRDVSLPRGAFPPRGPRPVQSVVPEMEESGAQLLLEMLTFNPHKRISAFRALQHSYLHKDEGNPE
T1 sequence (P30281 whole entry partner): as the sequence (P30281 whole entry partner) above

## CC(C)(CO)NS(=O)(=O)c1ccc(Nc2ncc(C(F)(F)F)c(-n3cccn3)n2)cc1 [Example 134]
[1]
  IC50: ≥ 100 nM
[2]
  IC50: ≤ 10 nM
[3]
  IC50: ≥ 100 nM
[4]
  IC50: ≥ 100 nM

## O=S(=O)(NC1(CO)CC1)c1ccc(Nc2ncc(C(F)(F)F)c(-n3cccn3)n2)cc1 [Example 135]
[1]
  IC50: ≥ 100 nM
[2]
  IC50: ≤ 10 nM
[3]
  IC50: ≥ 100 nM
[4]
  IC50: ≥ 100 nM

## O=S(=O)(NCCO)c1ccc(Nc2ncc(C(F)(F)F)c(-n3cccn3)n2)cn1 [Example 136, N-(2-hydroxyethyl)-5-[[4-pyrazol-1-yl-5-(trifluoromethyl)pyrimidin-2-yl]amino]pyridine-2-sulfonamide]
[1]
  IC50: ≥ 100 nM
[2]
  IC50: ≤ 10 nM
[3]
  IC50: ≥ 100 nM
[4]
  IC50: ≥ 100 nM

## O=S(=O)(NCCO)c1ccc(Nc2ncc(C(F)(F)F)c(-n3cccn3)n2)nc1 [Example 137]
[1]
  IC50: ≥ 100 nM
[2]
  IC50: ≥ 100 nM
[3]
  IC50: ≥ 100 nM
[4]
  IC50: ≥ 100 nM

## O=C(O)CNS(=O)(=O)c1ccc(Nc2ncc(C(F)(F)F)c(-n3cccn3)n2)cc1 [Example 138, ((4-((4-(1H-pyrazol-1-yl)-5-(trifluoromethyl)pyrimidin-2-yl)amino)phenyl)sulfonyl)glycine]
[1]
  IC50: ≥ 100 nM
[2]
  IC50: ≤ 10 nM
[3]
  IC50: ≥ 100 nM
[4]
  IC50: ≥ 100 nM

Reference: patent US20260308145A1, “CDK2 INHIBITORS AND METHODS OF USING SAME” (Shenzhen lonova Life Science Co., Ltd., priority 2023, published 2026)
